For one data set, the system named is A9 DA neurons. Type of data set: in vivo, rat. To be noted: rats, intra-striatal 6-OHDA. An excerpt:
Retrograde 6-OHDA lesioning within the striatum is a well-established method of creating progressive degeneration of A9 DA neurons. The loss of TH immunoreactivity reflects actual loss of DA neurons (Sauer, 1994).
The in vivo neuroprotective effects of G-substrate against 6-OHDA-induced toxicity was examined by injecting 6-OHDA into the corpus striatum of rats which previously had either G-substrate or control genes (empty vector or YFP) delivered to the midbrain using the lentivirus as described above. 6-OHDA induced approximately an 80% loss of TH-positive neurons in the midbrain (FIG. 12Q) and complete loss of TH immunoreactivity in the striatum (data not shown). The severity of the striatal insult in this paradigm precluded our ability to usefully measure protection of striatal nerve terminals. […] Furthermore, most of the surviving TH-positive neurons in lenti G-substrate-transduced rats were strongly G-substrate-positive (FIGS. 12G-12L).
Rats received two 2.75 μl stereotaxic injections of either lenti-empty vector+lenti-eGFP (n=19), lenti-G substrate+lenti-eGFP (n=19), or lenti-YFP (n=14) and delivered at a rate of 0.2 μl/min using microinfusion pumps (Stoelting Co, Wood Dale, Ill.) with 10 min wait times after each injection. Lenti-eGFP was added to each condition, excluding the YFP condition, to serve as an exogenous marker for surgical targeting (0.5 μl of the total 5.5 μl A volume). SN injection coordinates were as follows: site 1: AP −4.8, ML −2.0, DV −7.2; site 2: AP −5.5, ML −1.8, DV −7.2; and tooth bar set at −3.3. Virus titers (p24) were as follows: G substrate, 60 ng/μl; empty vector, 60 ng/μl; eGFP, 83 ng/μl; and YFP, 60 ng/μl.
Two weeks following lentiviral injection, animals (lenti-empty vector+lenti-eGFP (n=9), lenti-G substrate+lenti-eGFP (n=9), or lenti-YFP (n=14)) received three 2.5 μl stereotaxic injections of 3.0 μg/μl 6-OHDA (total dose=22.5 μg 6-OHDA) delivered at a rate of 0.5 μl/min and 5 min wait times after each injection. Striatum injection coordinates were as follows: site 1: AP +1.3, ML −2.8, DV −4.5; site 2: AP +0.2, ML, −3.0, DV −5.0; site 3: AP −0.6, ML −4.0, DV −5.5; and tooth bar set at −3.3. The lesion was allowed to progress for 3 weeks after which animals were sacrificed for post mortem analyses.
Brains were cut frozen in the coronal plane at a thickness of 40 μm on a sliding microtome and six series of sections were stored in cryoprotectant. Two full series of sections were processed for visualization of tyrosine hydroxylase (TH) via the biotin-labeled antibody procedure. Briefly, following several washes in a PBS solution containing 0.01% Triton X-100 (PBS-T), endogenous peroxidase was quenched in a 3% hydrogen peroxide solution and background staining was then inhibited in a 5% normal goat serum solution. […]

For another data set, the system named is PP2A. The data set can be described thus: PP2A activity assay (immunoprecipitated PP2A, phosphopeptide, Malachite Green). Type of data set: cell-based, human. As for the experimental part:
PP2A activity was measured in control BE(2)-M17 cells at various incubation times (t=0, 1, 2, 5 and 8 hr) after exposure to 50 μM 6-OHDA. […] Control, wild-type, and T123A G-substrate-expressing cells were then exposed to 50 μM 6-OHDA for 2 hours before measurement of PP2A activity.
PP2A activity was measured using a non-radioactive kit according to the manufacturer's instruction (Upstate Biotechnologies, Lake Placid, N.Y.). After 50 μM 6-OHDA exposure with various times, cells were harvested in 20 mM imidazole-HCl, 2 mM EDTA, 2 mM EGTA, pH7 with a protease inhibitor cocktail (Sigma). Protein concentrations of the lysates were measured using BCA assay (Pierce) and 500 μg of protein was immunoprecipitated using an anti-PP2A catalytic subunit antibody and protein A-Sepharose beads. Immunoprecipitated PP2A was then incubated with phosphopeptide (K-R-pT-I-R-R (SEQ ID NO: 8)) for 10 min at 37° C. Dephosphorylation of the phosphopeptide was assayed spectrophotometrically at 650 nm using Malachite Green.

For another data set, the system named is BE(2)-M17 cells. Nature of the data set: In vitro protection assays (MTS cell viability, LDH release) against neurotoxins. Type of data set: cell-based, human. As to conditions: for protection against 50 μM 6-OHDA exposure by PP2A inhibition (MTS cellular viability): BE(2)-M17 cells without elevated G-substrate, normalized to control. On the procedure:
Viability of the M17 cells was assessed following exposure to a variety of neurotoxins, each representing different aspects of PD pathology. 6-hydroxydopamine (6-OHDA) causes oxidative stress. MG-132 induces proteasome inhibition. And, MPP+ causes mitochondrial dysfunction by inhibiting Complex I. Cytotoxicity of M17 cells was determined using both cell viability assays and LDH release. G-substrate overexpression in M17 cells was confirmed by Western blot analysis (FIG. 3A) and by immunocytochemistry (FIG. 3B).
BE(2)-M17 cells were transduced with lentivirus expressing control or G-substrate with a multiplicity of infection 15. Cells were grown in Optimem™ (Invitrogen, Carlsbad, Calif.) supplemented with 10% heat-inactivated fetal calf serum (Hyclone, Logan, Utah), nonessential amino acid and sodium pyruvate. Cells were maintained at 37° C., in 5% CO2 humid atmosphere. For the bioassay, cells were plated in 96 well plates at 5000 per well. The next day, cells were treated with various concentrations of 6-OHDA (Sigma), MG-132 (Calbiochem) and MPP+ (Sigma) for 20 hrs. The supernatant was used to determine cytotoxicity using LDH release assay kit (Roche, Indianapolis, Ind.) and the cells remaining on the plate was used to determine cell viability using MTS based solution, CellTiter 96 AQueous One™ solution cell proliferation assay (Promega, Madison, Wis.).
Three different siRNAs for human G-substrate as described herein, a negative control siRNA, and a validated Akt siRNA (Ambion; Austin, Tex.) were used. Cells were plated in 96 well plates at 5000 per well with siRNAs and siPORT NeoFX transfection agent (Ambion, Austin, Tex.). After 48 hrs of incubation with siRNAs, each of the toxicants (6-OHDA, MG-132 or MPP+) were applied to the cells. Cell viability and cytotoxicity was measured after 20 hrs of toxin exposure.
(In general: LDH in the medium is a marker of cell lysis.)

A further data set relates to VMAT2. Nature of the data set: Western blot of VMAT2 expression in M17 cells. Type of data set: cell-based, human. As to conditions: naïve M17 cells. An excerpt: BE(2)-M17 cells were used to investigate the interaction between G-substrate and α-synuclein, a known risk factor and possible causative agent in Parkinson's disease. […] Likewise, VMAT2 expression was reduced in naïve M17 cells following the reduction in endogenous G-substrate using siRNA (FIG. 10C).
M17 cells transiently and stably overexpression α-synuclein were transfected using the G-substrate lentiviral vector described above.
The PP2A regulation of VMAT 2 was investigated in M17 cells. PP2A levels were reduced using RNAi. […] The effect of PP2A inhibition was not generalized to other dopaminergic markers tested.
Cells and tissue samples were collected from and suspended in lysis buffer containing: 50 mM Tris-HCl, 0.15 M NaCl, 0.32 M sucrose, 1.0 mM EDTA, and 1% NP-40. In addition, phosphatase inhibitors I and II (1:100) and protease inhibitors (1:100) were added fresh prior to cell lysis (Sigma-Aldrich, P2850, P5276, and P8340 respectively). Following cell lysis, the homogenate was centrifuged, a portion of the supernatant was reserved for protein determination (BCA Assay, Pierce, Rockford, Ill.) and the remaining was stored at −20° C. 20 μg (in vitro cell preps) and 50 μg (tissue dissections) of solubilized protein were mixed 1:1 with sample buffer and boiled for 5 min. The samples and molecular weight standards were separated using the Criterion precast 10% SDS-polyacrylamide gel system (Bio-Rad, Hercules, Calif.). After electrophoresis, the proteins were electrically transferred to PVDF membranes at 100 V for 30 min. After transfer, blots were incubated in Tris-buffered saline with 0.1% Tween 20 (TBS-T) containing 5% BSA. Subsequently, blots were incubated with the following antibodies at 4° C. overnight (1:1000 unless otherwise stated): phospho-Akt (ser473), phospho-GSK3β (ser9), phospho-erk1/2, and phospho-p38 (Cell Signaling Technologies, Danvers, Mass.). HRP-conjugated secondary antibodies were then applied and immunoreactive bands were visualized with chemiluminescence (Amersham Biosciences, Arlington Heights, Ill.) and exposed onto film. Immunoblots were then stripped and re-probed for the expression of the total protein (Cell Signaling) and beta-actin (1:10 000) (Abcam) to serve as a loading control. Optical density analysis (NIH image) was used to determine the relative abundance of protein in each sample. The optical densities of the phospho epitopes were standardized to their respective total proteins and this value was used in the statistical analyses.
A general note: In western blotting, separated proteins are transferred to a membrane and probed.

Where [1] appears, read: lentiviral overexpression in BE(2)-M17 cells, toxin 20 hrs, compared to control.

Regarding `NCCc1cc(O)c(O)cc1O` [6-OHDA, 6-hydroxydopamine, reference compound], in the data set on A9 DA neurons (3 weeks), the “loss of TH-positive neurons in the midbrain” value was roughly 80%. Further, the “loss of TH immunoreactivity in the striatum” value in the data set on A9 DA neurons (data not shown) is recorded as “complete loss”. Also, the “PP2A activity compared to basal activity” value with PP2A (control BE(2)-M17 cells, 50 μM 6-OHDA, t=1, 2, 8 hr (all times except t=5 hr)) is listed as “significantly increased”.

Consider `COC[C@@H]([C@H](O)[C@H](O)C(=O)NCC[C@H](C)c1nc(/C=C/C[C@@H]2O[C@]3(C[C@@H](O)[C@@H]2C)O[C@H]([C@H](C[C@H](O)[C@H](C)[C@H](O)[C@H](C)/C=C(C)/C(C)=C/C=C/C(C)=C\C#N)OC)[C@H](OP(=O)(O)O)C3(C)C)co1)N(C)C` [calyculin A, reference compound], for which, in the data set on BE(2)-M17 cells, the “protection against 50 μM 6-OHDA exposure by PP2A inhibition (MTS cellular viability)” value was “none of these methods alone were protective”. The VMAT2 expression result in the data set with VMAT2 was “increased VMAT2 levels”.

Consider `C=C1[C@@H](O)[C@@H]2O[C@]3(CC[C@H](/C=C/[C@@H](C)[C@@H]4CC(C)=C[C@@]5(O[C@H](C[C@@](C)(O)C(=O)O)CC[C@H]5O)O4)O3)CC[C@H]2O[C@@H]1[C@@H](O)C[C@H](C)[C@H]1O[C@@]2(CCCCO2)CC[C@H]1C` [okadaic acid, reference compound], for which, in the data set with BE(2)-M17 cells, the “protection against 50 μM 6-OHDA exposure by PP2A inhibition (MTS cellular viability)” value was “none of these methods alone were protective”. In addition, the VMAT2 expression result in the data set with VMAT2 was “increased VMAT2 levels”.

“T123A mutant G-substrate: mutant G-substrate with Thr to Ala point mutation at Thr 123 (T119A of human), overexpressed from a lentiviral vector”: in the data set on BE(2)-M17 cells (lentiviral overexpression in BE(2)-M17 cells), the “protection against 6-OHDA and MG-132 compared to the wild-type” value is reported as “significantly less effective”. In the data set on BE(2)-M17 cells (lentiviral overexpression in BE(2)-M17 cells, toxin 20 hrs), the “protection against MPP+-induced toxicity (cell viability, LDH release)” value is on record as “neither wild-type nor T123A mutant G-substrate overexpression was protective”. Also, in the data set on BE(2)-M17 cells (setting [1]), the “neuroprotection against 6-OHDA toxicity (cell viability, LDH release)” value is recorded as “neuroprotective” and the “neuroprotection against MG-132 toxicity (cell viability, LDH release)” value was “neuroprotective”. In the data set with PP2A (BE(2)-M17 cells exposed to 50 μM 6-OHDA for 2 hours, versus control cells), the “PP2A activity in G-substrate-expressing cells” value is given as “reduced compared to controls, but not reduced as much as observed in the wild-type G-substrate-expressing cells”.
